Results: patent publication US20250346600A1, “TRICYCLIC DERIVATIVES AND RELATED USES” (MOMA Therapeutics, Inc., priority 2023, published 2025)
Where two headings read alike, the source gives them in different places.

Key:
[1] = target: T1, Full length WRN protein (aa 2-1432) (Homo sapiens (Human), UniProt Q14191); experiment: WRN ATPase ADP-Glo biochemical assay, Assay Format A (10 μM ATP); details: 0.25 nM WRN, 100 nM C6.18 ssDNA, 30 min preincubation, read-out: ATPase ADPGlo AC50 (uM)- Assay Format A
T1 sequence (Q14191 2-1432): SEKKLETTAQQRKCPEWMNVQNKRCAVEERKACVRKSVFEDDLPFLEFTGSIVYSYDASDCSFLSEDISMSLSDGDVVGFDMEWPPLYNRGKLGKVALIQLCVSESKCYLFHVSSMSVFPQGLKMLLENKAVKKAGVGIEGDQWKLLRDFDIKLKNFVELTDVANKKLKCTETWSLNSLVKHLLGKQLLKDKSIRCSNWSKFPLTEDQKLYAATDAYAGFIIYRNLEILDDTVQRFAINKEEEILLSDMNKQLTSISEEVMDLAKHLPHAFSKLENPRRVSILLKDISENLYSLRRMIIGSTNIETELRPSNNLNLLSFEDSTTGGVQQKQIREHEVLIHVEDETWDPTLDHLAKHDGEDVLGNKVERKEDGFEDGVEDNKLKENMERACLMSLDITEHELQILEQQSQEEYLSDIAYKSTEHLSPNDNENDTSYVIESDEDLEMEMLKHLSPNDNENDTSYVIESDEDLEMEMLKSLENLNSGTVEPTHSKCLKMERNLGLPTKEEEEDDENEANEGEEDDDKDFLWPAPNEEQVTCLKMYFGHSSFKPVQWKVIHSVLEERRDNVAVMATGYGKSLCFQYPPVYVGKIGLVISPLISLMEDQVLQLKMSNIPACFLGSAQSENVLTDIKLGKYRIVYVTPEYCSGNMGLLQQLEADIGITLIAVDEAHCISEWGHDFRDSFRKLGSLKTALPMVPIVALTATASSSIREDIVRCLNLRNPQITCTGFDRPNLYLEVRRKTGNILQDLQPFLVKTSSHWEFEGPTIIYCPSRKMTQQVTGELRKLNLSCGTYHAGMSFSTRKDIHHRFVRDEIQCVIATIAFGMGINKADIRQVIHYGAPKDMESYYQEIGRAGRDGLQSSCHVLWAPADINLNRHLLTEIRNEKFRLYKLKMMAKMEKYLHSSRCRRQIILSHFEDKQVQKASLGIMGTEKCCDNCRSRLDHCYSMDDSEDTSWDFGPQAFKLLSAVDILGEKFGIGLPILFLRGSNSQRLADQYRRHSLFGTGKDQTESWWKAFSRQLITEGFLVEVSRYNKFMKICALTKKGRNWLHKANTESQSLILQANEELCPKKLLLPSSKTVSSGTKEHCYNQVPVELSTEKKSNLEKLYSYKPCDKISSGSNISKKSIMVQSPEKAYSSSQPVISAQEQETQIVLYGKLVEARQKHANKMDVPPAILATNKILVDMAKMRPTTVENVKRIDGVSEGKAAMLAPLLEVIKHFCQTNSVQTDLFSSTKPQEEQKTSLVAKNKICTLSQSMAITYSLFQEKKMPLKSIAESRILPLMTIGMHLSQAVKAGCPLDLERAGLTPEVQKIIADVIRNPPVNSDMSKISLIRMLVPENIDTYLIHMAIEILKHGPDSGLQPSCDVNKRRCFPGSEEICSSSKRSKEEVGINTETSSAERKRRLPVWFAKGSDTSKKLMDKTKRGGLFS
Method in brief: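 Sf9-expressed FLAG-AVI-TEV-tagged WRN (0.5 nM) preincubated 30 min with compound (11-point 3-fold dilution). Reaction started with 200 nM C6.18 39-mer ssDNA and 20 μM ATP (addition concentrations), run 30 min at room temperature. ADP measured by ADP-Glo luminescence; IC50 from four-parameter fit, geometric mean of ≥2 runs.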

[2] = target: T1, Full length WRN protein (aa 2-1432); experiment: WRN ATPase ADP-Glo biochemical assay, Assay Format B (100 μM ATP); details: 0.25 nM WRN, 100 nM C6.18 ssDNA, 60 min preincubation, read-out: ATPase ADPGlo AC50 (uM)- Assay Format B
HT29 cells = experiment: HT29 (MSS) 7 day viability, CellTiter Glo; assay type: cell-based; details: 7 days, read-out: HT29 (MSS) Viability 7 Day CTGAbs AC50
Method in brief: (§1)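 Seven-day viability is assessed with CellTiter Glo after compounds, diluted in ten 3-fold steps in DMSO, are exposed to HCT116 (50 cells/well) or HT29 (500 cells/well). Reported IC50 is the geometric mean of at least two independent runs.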

HCT116 cells = experiment: HCT116 (MSI) 7 day viability, CellTiter Glo; assay type: cell-based; details: 7 days, read-out: HCT116 (MSI) Viability 7 Day Abs AC50
Method in brief: as §1

| AC50 [1] [µM] | AC50 [2] [µM] | Structure (SMILES) | AC50 (HT29 cells; Homo sapiens, HT-29, 168 h) [nM] | AC50 (HCT116 cells; Homo sapiens, HCT-116, 168 h) [nM] | AC50 (HT29 cells) [nM] | AC50 (HCT116 cells) [nM] |
| --- | --- | --- | --- | --- | --- | --- |
| < 0.0015 | 0.015 to 0.055 | C=CC(=O)N1CCc2nn(-c3ccc(C45CC(C4)C5)cc3O)c3c2C(C1)N(C(=O)c1cnc(C(F)(F)F)c(O)c1)CC3 (stereo not drawn) [Compound 92, 1-(2-(4-(bicyclo[1.1.1]pentan-1-yl)-2-hydroxyphenyl)-5-(5-hydroxy-6-(trifluoromethyl)nicotinoyl)-2,3,4,5,5a,6,8,9-octahydro-7H-1,2,5,7-tetraazabenzo[cd]azulen-7-yl)prop-2-en-1-one] | > 3000 | 1 to 100 | – | – |
| < 0.0015 | 0.015 to 0.055 | C=CC(=O)N1CCc2nn(-c3ccc(C4CCC4)cc3O)c3c2C(C1)N(C(=O)c1ncc(C(F)(F)F)cc1N)CC3 (stereo not drawn) [Compound 142, 1-(5-(3-amino-5-(trifluoromethyl)picolinoyl)-2-(4-cyclobutyl-2-hydroxyphenyl)-2,3,4,5,5a,6,8,9-octahydro-7H-1,2,5,7-tetraazabenzo[cd]azulen-7-yl)prop-2-en-1-one] | > 3000 | 1 to 100 | – | – |
| < 0.0015 | 0.005 to 0.015 | C=CC(=O)N1CCc2nn(-c3ccc(C4CC4)cc3O)c3c2C(C1)N(C(=O)c1cnc(OC(F)F)cc1N)CC3 (stereo not drawn) [Compound 192, 1-(5-(4-amino-6-(difluoromethoxy)nicotinoyl)-2-(4-cyclopropyl-2-hydroxyphenyl)-2,3,4,5,5a,6,8,9-octahydro-7H-1,2,5,7-tetraazabenzo[cd]azulen-7-yl)prop-2-en-1-one] | > 3000 | 1 to 100 | – | – |
| 0.0015 to 0.005 | 0.015 to 0.055 | C=CC(=O)N1CCc2nn(-c3ccc(C(C)C)cc3)c3c2C(C1)N(C(=O)c1ccc(Br)c2ncn(CCOC)c12)CC3 (stereo not drawn) [Compound 73, 1-(5-(4-bromo-1-(2-methoxyethyl)-1H-benzo[d]imidazole-7-carbonyl)-2-(4-isopropylphenyl)-2,3,4,5,5a,6,8,9-octahydro-7H-1,2,5,7-tetraazabenzo[cd]azulen-7-yl)prop-2-en-1-one] | > 3000 | 100 to 250 | – | – |
| 0.0015 to 0.005 | 0.015 to 0.055 | C=CC(=O)N1CCc2nn(-c3ccc(C(C)C)cc3)c3c2C(C1)N(C(=O)c1cnc(C(F)(F)F)c(OCC(N)=O)c1)CC3 (stereo not drawn) [Compound 59, 2-((5-(7-acryloyl-2-(4-isopropylphenyl)-3,4,5,5a,6,7,8,9-octahydro-2H-1,2,5,7-tetraazabenzo[cd]azulene-5-carbonyl)-2-(trifluoromethyl)pyridin-3-yl)oxy)acetamide] | > 3000 | 100 to 250 | – | – |
| < 0.0015 | < 0.0015 | C=CC(=O)N1CC(OCc2ncco2)c2nn(-c3ccc(C4CC4)cc3)c3c2C(C1)N(C(=O)c1cnc(C(F)(F)F)cc1N)CC3 (stereo not drawn) [Compound 250, 1-(5-(4-amino-6-(trifluoromethyl)nicotinoyl)-2-(4-cyclopropylphenyl)-9-(oxazol-2-ylmethoxy)-2,3,4,5,5a,6,8,9-octahydro-7H-1,2,5,7-tetraazabenzo[cd]azulen-7-yl)prop-2-en-1-one] | > 3000 | 1 to 100 | – | – |
| 0.0015 to 0.005 | 0.015 to 0.055 | C=CC(=O)N1CCc2nn(-c3ccc(C(F)(F)F)nc3N)c3c2C(C1)N(C(=O)c1ccc(Br)c2[nH]c(C(F)F)nc12)CC3 (stereo not drawn) [Compound 136, 1-(2-(2-amino-6-(trifluoromethyl)pyridin-3-yl)-5-(7-bromo-2-(difluoromethyl)-1H-benzo[d]imidazole-4-carbonyl)-2,3,4,5,5a,6,8,9-octahydro-7H-1,2,5,7-tetraazabenzo[cd]azulen-7-yl)prop-2-en-1-one] | > 3000 | 100 to 250 | – | – |
| < 0.0015 | 0.005 to 0.015 | C=CC(=O)N1CCc2nn(-c3ccc(C4CCC4)c(F)c3O)c3c2C(C1)N(C(=O)c1cnc(C(F)(F)F)cc1N)CC3 (stereo not drawn) [Compound 139, 1-(5-(4-amino-6-(trifluoromethyl)nicotinoyl)-2-(4-cyclobutyl-3-fluoro-2-hydroxyphenyl)-2,3,4,5,5a,6,8,9-octahydro-7H-1,2,5,7-tetraazabenzo[cd]azulen-7-yl)prop-2-en-1-one] | > 3000 | 1 to 100 | – | – |
| < 0.0015 | 0.005 to 0.015 | C=CC(=O)N1CCc2nn(-c3ccc(C(C)C)cc3)c3c2C(C1)N(C(=O)c1ccc(Br)c2[nH]c(N)nc12)CC3 (stereo not drawn) [Compound 8, 1-(5-(2-amino-7-bromo-1H-benzo[d]imidazole-4-carbonyl)-2-(4-isopropylphenyl)-2,3,4,5,5a,6,8,9-octahydro-7H-1,2,5,7-tetraazabenzo[cd]azulen-7-yl)prop-2-en-1-one] | > 3000 | 1 to 100 | – | – |
| < 0.0015 | 0.005 to 0.015 | C=CC(=O)N1CCc2nn(-c3ccc(C4CCC4)cc3O)c3c2C(C1)N(C(=O)c1ccc(C(C)(F)F)nc1N)CC3 (stereo not drawn) [Compound 155, 1-(5-(2-amino-6-(1,1-difluoroethyl)nicotinoyl)-2-(4-cyclobutyl-2-hydroxyphenyl)-2,3,4,5,5a,6,8,9-octahydro-7H-1,2,5,7-tetraazabenzo[cd]azulen-7-yl)prop-2-en-1-one] | > 3000 | 1 to 100 | – | – |

More lines, now with the values behind:

| Structure (SMILES) | AC50 [1] [µM] | AC50 [2] [µM] | AC50 (HT29 cells; Homo sapiens, HT-29, 168 h) [nM] | AC50 (HCT116 cells; Homo sapiens, HCT-116, 168 h) [nM] | AC50 (HT29 cells) [nM] | AC50 (HCT116 cells) [nM] |
| --- | --- | --- | --- | --- | --- | --- |
| C=CC(=O)N1CC(C)c2nn(-c3ccc(C(C)C)cc3)c3c2C(C1)N(C(=O)c1ccc(Br)c2[nH]cnc12)CC3 (stereo not drawn) [Compound 34, 1-(5-(7-bromo-1H-benzo[d]imidazole-4-carbonyl)-2-(4-isopropylphenyl)-9-methyl-2,3,4,5,5a,6,8,9-octahydro-7H-1,2,5,7-tetraazabenzo[cd]azulen-7-yl)prop-2-en-1-one] | 0.0015 to 0.005 | 0.005 to 0.015 | – | – | > 3000 | 250 to 500 |
| C=CC(=O)N1CCc2nn(-c3ccc(C4CC4)cc3)c3c2C(C1)N(C(=O)c1cnc(C(F)(F)F)c(F)c1N)CC3 (stereo not drawn) [Compound 178, 1-(5-(4-amino-5-fluoro-6-(trifluoromethyl)nicotinoyl)-2-(4-cyclopropylphenyl)-2,3,4,5,5a,6,8,9-octahydro-7H-1,2,5,7-tetraazabenzo[cd]azulen-7-yl)prop-2-en-1-one] | < 0.0015 | 0.005 to 0.015 | > 3000 | 1 to 100 | – | – |
| C=CC(=O)N1CC(C)c2nn(-c3ccc(C4CC4)cc3O)c3c2C(C1)N(C(=O)c1cnc(C(F)(F)F)cc1N)CC3 (stereo not drawn) [Compound 195, 1-(5-(4-amino-6-(trifluoromethyl)nicotinoyl)-2-(4-cyclopropyl-2-hydroxyphenyl)-9-methyl-2,3,4,5,5a,6,8,9-octahydro-7H-1,2,5,7-tetraazabenzo[cd]azulen-7-yl)prop-2-en-1-one] | < 0.0015 | 0.005 to 0.015 | – | – | > 3000 | 1 to 100 |
| C=CC(=O)N1CCc2nn(-c3ccc(C4CC4)cc3)c3c2C(C1)N(C(=O)c1ccc(C(F)(F)F)nc1O)CC3 (stereo not drawn) [Compound 109, 1-(2-(4-cyclopropylphenyl)-5-(2-hydroxy-6-(trifluoromethyl)nicotinoyl)-2,3,4,5,5a,6,8,9-octahydro-7H-1,2,5,7-tetraazabenzo[cd]azulen-7-yl)prop-2-en-1-one] | 0.005 to 0.015 | 0.015 to 0.055 | > 3000 | 250 to 500 | – | – |
| C=CC(=O)N1CCc2nn(-c3ccc(C4CC4)cc3)c3c2C(C1)N(C(=O)c1ccc(Cl)nc1N)CC3 (stereo not drawn) [Compound 167, 1-(5-(2-amino-6-chloronicotinoyl)-2-(4-cyclopropylphenyl)-2,3,4,5,5a,6,8,9-octahydro-7H-1,2,5,7-tetraazabenzo[cd]azulen-7-yl)prop-2-en-1-one] | < 0.0015 | 0.015 to 0.055 | > 3000 | 1 to 100 | – | – |
| C=CC(=O)N1CCc2nn(-c3ccc(C4CC4)cc3)c3c2C(C1)N(C(=O)c1cnc2c(C)nn(C)c2c1)CC3 (stereo not drawn) [Compound 110, 1-(2-(4-cyclopropylphenyl)-5-(1,3-dimethyl-1H-pyrazolo[4,3-b]pyridine-6-carbonyl)-2,3,4,5,5a,6,8,9-octahydro-7H-1,2,5,7-tetraazabenzo[cd]azulen-7-yl)prop-2-en-1-one] | 0.005 to 0.015 | > 0.055 | > 3000 | 100 to 250 | – | – |
| C=CC(=O)N1CCc2nn(-c3ccc(C4CCC4)cc3O)c3c2C(C1)N(C(=O)c1ccc(Br)c2nc(C(F)F)[nH]c12)CC3 (stereo not drawn) [Compound 90, 1-(5-(4-bromo-2-(difluoromethyl)-1H-benzo[d]imidazole-7-carbonyl)-2-(4-cyclobutyl-2-hydroxyphenyl)-2,3,4,5,5a,6,8,9-octahydro-7H-1,2,5,7-tetraazabenzo[cd]azulen-7-yl)prop-2-en-1-one] | < 0.0015 | 0.005 to 0.015 | > 3000 | 1 to 100 | – | – |
| C=CC(=O)N1CC(OC2CC2)c2nn(-c3ccc(C4CCC4)cc3)c3c2C(C1)N(C(=O)c1cnc(C(F)(F)F)cc1N)CC3 (stereo not drawn) [Compound 129, 1-(5-(4-amino-6-(trifluoromethyl)nicotinoyl)-2-(4-cyclobutylphenyl)-9-cyclopropoxy-2,3,4,5,5a,6,8,9-octahydro-7H-1,2,5,7-tetraazabenzo[cd]azulen-7-yl)prop-2-en-1-one] | < 0.0015 | 0.0015 to 0.005 | 1000 to 3000 | 1 to 100 | – | – |
